Measured values from patent US20250221988A1 (Cullgen (Shanghai), Inc., priority 2022, published 2025).
Like-named read-outs stand apart in the source and are kept apart here.

Assays:
[1] = test system: MV4;11 cells; test: Cell viability assay (CellTiter-Glo) in MV4;11 cells; type: cell-based; settings: read-out: MV4
Method: (§1) Cell Culture: RS4;11, MV4;11, MOLM-13 and other cells were cultured at 37° C. with 5% CO2 in RPMI 1640 or DMEM Medium supplemented with 10% fetal bovine serum. Cells were authenticated using the short tandem repeat (STR) assays. Mycoplasma test results were negative.
(§2) Cell viability assays: Cells were seeded at a density of 5000 cells per well in 96-well assay plates and treated with test compounds following a 8-point or 12-point 3-fold serial dilution. Three days later, cell viability was determined using the CellTiter-Glo assay kit according to the manufacturer's instructions. The dose-response curves were determined and IC50 values were calculated using the GraphPad Prism software following a nonlinear regression (least squares fit) method.
The IC50 values (nM) of each compound were determined in MV4;11 and MOLM-13 cells with or without gilteritinib (10 nM for MV4;11; and 20 nM for MOML-13) as described in the Materials and Methods subsection and calculated using the GraphPad Prism 5.0 software.

[2] = test system: MOLM-13 cells; test: Cell viability assay (CellTiter-Glo) in MOLM-13 cells; type: cell-based
Method: as §1
as §2, with “method. […]” for “method.”

[3] = Homo sapiens, MV4-11, 72 h, MV4;11 cells, compound alone, three days, 11 IC50
[4] = MV4;11 cells, with 10 nM gilteritinib, three days, 11 IC50 (nM) + 10 nM Gil
[5] = Homo sapiens, 72 h, MOLM-13 cells, compound alone, three days, read-out: MOLM-13 IC50
[6] = MOLM-13 cells, with gilteritinib, three days, read-out: MOLM-13 IC50 (nM) + 10 nM Gil

Structure (SMILES)	IC50 [1, 3] [nM]	IC50 [1, 4] [nM]	IC50 [2, 5] [nM]	IC50 [2, 6] [nM]	IC50 ([1]; Homo sapiens, MV4-11, 72 h, 11 IC50 (nM)) [nM]	IC50 ([2]; Homo sapiens, MOLM-13, 72 h, read-out: MOLM-13 IC50 (nM)) [nM]	IC50 ([2]; read-out: MOLM-13 IC50 (nM) + 10 nM Gil, MOLM-13 cells, with gilteritinib, three days) [nM]
O=C1CCC(N2C(=O)c3ccc(NC[C@H]4C[C@H](n5cc(-c6ncc(F)cc6OC6CC6)c(C6CC6)n5)C4)cc3C2=O)C(=O)N1 (stereo partly drawn) [GS-752, 5-(((Trans-3-(4-(3-cyclopropoxy-5-fluoropyridin-2-yl)-3-cyclopropyl-1H-pyrazol-1-yl)cyclobutyl)methyl)amino)-2-(2,6-dioxopiperidin-3-yl)isoindoline-1,3-dione]	< 10	< 10	< 10	< 10	–	–	–
Cc1nn([C@H]2C[C@H](CNc3ccc4c(c3)C(=O)N(C3CCC(=O)NC3=O)C4=O)C2)c2ccccc12 (stereo partly drawn) [GS-689, 2-(2,6-Dioxopiperidin-3-yl)-5-(((trans-3-(3-methyl-1H-indazol-1-yl)cyclobutyl)methyl)amino)isoindoline-1,3-dione]	10 to 100	10 to 100	100 to 1000	10 to 100	–	–	–
O=C1CCC(N2C(=O)c3ccc(NC[C@H]4C[C@H](n5cc(-c6ccc7cn[nH]c7n6)c(C6CC6)n5)C4)cc3C2=O)C(=O)N1 (stereo partly drawn) [GS-714, 5-(((Trans-3-(3-cyclopropyl-4-(1H-pyrazolo[3,4-b]pyridin-6-yl)-1H-pyrazol-1-yl)cyclobutyl)methyl)amino)-2-(2,6-dioxopiperidin-3-yl)isoindoline-1,3-dione]	10 to 100	10 to 100	100 to 1000	10 to 100	–	–	–
Cc1nc(-c2cn([C@H]3C[C@H](COc4ccc5c(c4)C(=O)N(C4CCC(=O)NC4=O)C5=O)C3)nc2C2CC2)ccc1F (stereo partly drawn) [GS-715, 5-((Trans-3-(3-cyclopropyl-4-(5-fluoro-6-methylpyridin-2-yl)-1H-pyrazol-1-yl)cyclobutyl)methoxy)-2-(2,6-dioxopiperidin-3-yl)isoindoline-1,3-dione]	> 1000	100 to 1000	> 1000	–	–	–	–
Cc1cnc2c(c1)c(C1CC1)nn2[C@H]1C[C@H](CNc2ccc3c(c2)C(=O)N(C2CCC(=O)NC2=O)C3=O)C1 (stereo partly drawn) [GS-673, 5-(((Trans-3-(3-cyclopropyl-5-methyl-1H-pyrazolo[3,4-b]pyridin-1-yl)cyclobutyl)methyl)amino)-2-(2,6-dioxopiperidin-3-yl)isoindoline-1,3-dione]	> 1000	100 to 1000	> 1000	100 to 1000	–	–	–
Cc1nc(-c2cn(CC3CC3CNc3ccc4c(c3)C(=O)N(C3CCC(=O)NC3=O)C4=O)nc2C2CC2)ccc1F (stereo not shown) [GS-645, 5-(((2-((3-Cyclopropyl-4-(5-fluoro-6-methylpyridin-2-yl)-1H-pyrazol-1-yl)methyl)cyclopropyl)methyl)amino)-2-(2,6-dioxopiperidin-3-yl)isoindoline-1,3-dione]	> 1000	–	> 1000	100 to 1000	–	–	–
O=C1CCC(N2C(=O)c3ccc(NC[C@H]4C[C@H](n5cc(-c6ncccc6[C@H]6C[C@H](O)C6)c(C6CC6)n5)C4)cc3C2=O)C(=O)N1 (stereo partly shown) [GS-772]	10 to 100	10 to 100	10 to 100	< 10	–	–	–
O=C1CCC(N2C(=O)c3ccc(NC[C@H]4C[C@H](n5cc(NC6CCC(O)CC6)c(C6CC6)n5)C4)cc3C2=O)C(=O)N1 (stereo partly drawn) [GS-709, 5-(((Trans-3-(3-cyclopropyl-4-((4-hydroxycyclohexyl)amino)-1H-pyrazol-1-yl)cyclobutyl)methyl)amino)-2-(2,6-dioxopiperidin-3-yl)isoindoline-1,3-dione]	> 1000	–	> 1000	–	–	–	–
O=C1CCC(N2C(=O)c3ccc(NC[C@H]4C[C@H](n5cc(Nc6ccncc6)c(C6CC6)n5)C4)cc3C2=O)C(=O)N1 (stereo partly drawn) [GS-671, 5-(((Trans-3-(3-cyclopropyl-4-(pyridin-4-ylamino)-1H-pyrazol-1-yl)cyclobutyl)methyl)amino)-2-(2,6-dioxopiperidin-3-y)isoindoline-1,3-dione]	–	–	–	–	> 1000	> 1000	100 to 1000
O=C1CCC(N2C(=O)c3ccc(NC[C@H]4C[C@H](n5cc(-c6ccc7c(n6)CCC7O)c(C6CC6)n5)C4)cc3C2=O)C(=O)N1 (stereo partly drawn) [GS-705, 5-(((Trans-3-(3-cyclopropyl-4-(5-hydroxy-6,7-dihydro-5H-cyclopenta[b]pyridin-2-yl)-1H-pyrazol-1-yl)cyclobutyl)methyl)amino)-2-(2,6-dioxopiperidin-3-yl)isoindoline-1,3-dione]	> 1000	100 to 1000	100 to 1000	100 to 1000	–	–	–
O=C1CCC(N2C(=O)c3cc(F)c(NCCC[C@H]4C[C@H](n5cc(-c6cnc7ccccc7n6)c(C6CC6)n5)C4)cc3C2=O)C(=O)N1 (stereo partly drawn) [GS-718, 5-((3-(Trans-3-(3-cyclopropyl-4-(quinoxalin-2-yl)-1H-pyrazol-1-yl)cyclobutyl)propyl)amino)-2-(2,6-dioxopiperidin-3-yl)-6-fluoroisoindoline-1,3-dione]	> 1000	–	> 1000	–	–	–	–
Cc1cc(F)cnc1-c1cn([C@H]2C[C@H](CNc3ccc4c(c3)C(=O)N(C3CCC(=O)NC3=O)C4=O)C2)nc1C(F)F (stereo partly drawn) [GS-719, 5-(((Trans-3-(3-(Difluoromethyl)-4-(5-fluoro-3-methylpyridin-2-yl)-1H-pyrazol-1-yl)cyclobutyl)methyl)amino)-2-(2,6-dioxopiperidin-3-yl)isoindoline-1,3-dione]	10 to 100	< 10	10 to 100	< 10	–	–	–
O=C1CCC(N2C(=O)c3ccc(NC[C@H]4C[C@H](n5cc(-c6ncccc6C6CCNCC6)c(C6CC6)n5)C4)cc3C2=O)C(=O)N1 (stereo partly drawn) [GS-665, 5-(((Trans-3-(3-cyclopropyl-4-(3-(piperidin-4-yl)pyridin-2-yl)-1H-pyrazol-1-yl)cyclobutyl)methyl)amino)-2-(2,6-dioxopiperidin-3-yl)isoindoline-1,3-dione]	> 1000	–	> 1000	–	–	–	–
N[C@H]1C[C@@H](n2cc3cnc(-c4cn([C@H]5C[C@H](CNc6ccc7c(c6)C(=O)N(C6CCC(=O)NC6=O)C7=O)C5)nc4C4CC4)cc3n2)C1 (stereo partly drawn) [GS-785, 5-(((Trans-3-(4-(2-(cis-3-aminocyclobutyl)-2H-pyrazolo[4,3-c]pyridin-6-yl)-3-cyclopropyl-1H-pyrazol-1-yl)cyclobutyl)methyl)amino)-2-(2,6-dioxopiperidin-3-yl)isoindoline-1,3-dione]	< 10	< 10	10 to 100	< 10	–	–	–
Cn1ncc2cnc(-c3cn([C@H]4C[C@H](CCc5ccc6c(c5)C(=O)N(C5CCC(=O)NC5=O)C6=O)C4)nc3C3CC3)cc21 (stereo partly drawn) [GS-767, 5-(2-(Trans-3-(3-cyclopropyl-4-(1-methyl-1H-pyrazolo[4,3-c]pyridin-6-yl)-1H-pyrazol-1-yl)cyclobutyl)ethyl)-2-(2,6-dioxopiperidin-3-yl)isoindoline-1,3-dione]	100 to 1000	10 to 100	100 to 1000	10 to 100	–	–	–
N[C@H]1C[C@H](n2ncc3cnc(-c4cn([C@H]5C[C@H](CNc6ccc7c(c6)C(=O)N(C6CCC(=O)NC6=O)C7=O)C5)nc4C4CC4)cc32)C1 (stereo partly drawn) [GS-776, 5-(((Trans-3-(4-(1-(trans-3-aminocyclobutyl)-1H-pyrazolo[4,3-c]pyridin-6-yl)-3-cyclopropyl-1H-pyrazol-1-yl)cyclobutyl)methyl)amino)-2-(2,6-dioxopiperidin-3-yl)isoindoline-1,3-dione]	10 to 100	< 10	10 to 100	< 10	–	–	–
O=C1CCC(N2C(=O)c3ccc(NC[C@H]4C[C@H](n5cc(Nc6ccccn6)c(C6CC6)n5)C4)cc3C2=O)C(=O)N1 (stereo partly drawn) [GS-669, 5-(((Trans-3-(3-cyclopropyl-4-(pyridin-2-ylamino)-1H-pyrazol-1-yl)cyclobutyl)methyl)amino)-2-(2,6-dioxopiperidin-3-yl)isoindoline-1,3-dione]	100 to 1000	100 to 1000	> 1000	100 to 1000	–	–	–
O=C1CCC(N2C(=O)c3ccc(NC[C@H]4C[C@H](n5cc(-c6cnc7c(NC(CO)CO)cccc7n6)c(C6CC6)n5)C4)cc3C2=O)C(=O)N1 (stereo partly drawn) [GS-710, 5-(((Trans-3-(3-cyclopropyl-4-(5-((1,3-dihydroxypropan-2-yl)amino)quinoxalin-2-yl)-1H-pyrazol-1-yl)cyclobutyl)methyl)amino)-2-(2,6-dioxopiperidin-3-yl)isoindoline-1,3-dione]	10 to 100	< 10	10 to 100	< 10	–	–	–
O=C1CCC(N2C(=O)c3ccc(NC[C@H]4C[C@H](n5cc(-c6cnc7ccc(C8CC(O)C8)cc7n6)c(C6CC6)n5)C4)cc3C2=O)C(=O)N1 (stereo partly drawn) [GS-764, 5-(((Trans-3-(3-cyclopropyl-4-(7-(3-hydroxycyclobutyl)quinoxalin-2-yl)-1H-pyrazol-1-yl)cyclobutyl)methyl)amino)-2-(2,6-dioxopiperidin-3-yl)isoindoline-1,3-dione]	< 10	< 10	< 10	< 10	–	–	–
